The values below come from patent US6413959B1, “Method of treating depression with arylglycinamide derivatives” (Boehringer Ingelheim KG, priority 1995, dated 2002).

The target in one series is T1, NK1 (Cavia porcellus, UniProt P30547).
T1 construct: Guinea pigs weighing 300-500 grams were anaesthetised with pentobarbital; from tissue; host or cells: whole anaesthetised guinea pig (in vivo)
The series can be described thus: Inhibition of the lowering of blood pressure caused by NK1 in anaesthetised guinea pigs. It is filed as in vivo. The settings on record: guinea pig, iv, antagonist given by intraduodenal route, NK1-agonist [βAla4, Sar9, Met(O2)11] SP(4-11) 0.2 μmol/kg i.v., read-out: ID50 (dose which inhibits the lowering of blood pressure caused by the NK1-agonist by 50%).

Series [1] has as its target T2, NK1-receptor (substance P-receptor) (Homo sapiens, UniProt P25103).
T2 construct: expressed in transfected cells; host or cells: IM-9 human lymphoblastoma cells
Nature of the series: NK1-receptor affinity, displacement of 125I-labelled substance P on IM-9 cells. It is filed as binding. The settings on record: human lymphoblastoma cells (IM-9) with cloned NK1-receptors. Background: Loss of bound radioactivity is the signal in a displacement assay; it reports binding, not function.

T2 sequence (P25103 whole entry): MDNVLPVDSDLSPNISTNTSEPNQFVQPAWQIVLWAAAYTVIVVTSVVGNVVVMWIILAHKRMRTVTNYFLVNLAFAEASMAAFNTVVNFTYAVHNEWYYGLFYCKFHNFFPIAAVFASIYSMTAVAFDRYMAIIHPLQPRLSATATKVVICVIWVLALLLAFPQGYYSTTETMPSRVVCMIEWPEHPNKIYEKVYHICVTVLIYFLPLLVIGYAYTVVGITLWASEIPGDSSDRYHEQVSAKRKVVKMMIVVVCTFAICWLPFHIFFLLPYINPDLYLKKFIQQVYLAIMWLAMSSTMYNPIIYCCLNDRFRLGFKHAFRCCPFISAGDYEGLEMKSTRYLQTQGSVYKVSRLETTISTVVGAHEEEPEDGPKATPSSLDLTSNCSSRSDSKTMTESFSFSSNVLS
T1 sequence (P30547 whole entry): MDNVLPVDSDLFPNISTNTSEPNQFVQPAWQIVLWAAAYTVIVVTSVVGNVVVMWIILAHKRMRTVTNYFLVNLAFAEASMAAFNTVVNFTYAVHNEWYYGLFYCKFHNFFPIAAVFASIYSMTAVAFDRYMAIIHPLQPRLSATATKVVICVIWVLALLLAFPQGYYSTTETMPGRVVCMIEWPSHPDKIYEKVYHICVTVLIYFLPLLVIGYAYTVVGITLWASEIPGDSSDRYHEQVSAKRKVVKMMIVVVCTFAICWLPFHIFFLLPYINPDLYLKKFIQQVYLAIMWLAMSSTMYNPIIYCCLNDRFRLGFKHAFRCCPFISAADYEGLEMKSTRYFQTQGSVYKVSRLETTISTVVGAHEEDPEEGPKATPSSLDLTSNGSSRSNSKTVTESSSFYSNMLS

Turning to `CN(CCc1cc(C(F)(F)F)cc(C(F)(F)F)c1)C(=O)C(c1ccccc1)N1CCN(C2CCCCC2)CC1` (centres unmarked) [Example 5], the melting point (as a rule, the temperature, or range, at which the solid turns liquid) fell in the range of 158 to 164 °C. Further, the ED50 on NK1 is 1.4 mg/kg. Besides, the Ki (in general, a measure of affinity in units of concentration, obtained from inhibition or displacement) in series [1] came to 1.3 nM.
With `CN(CCc1cc(C(F)(F)F)cc(C(F)(F)F)c1)C(=O)C(c1ccccc1)N1CCN(C2CCC2)CC1` (centres unmarked) [Example 68], the melting point is 236 to 238 °C (dec.). Moreover, the inhibition constant Ki in series [1] stood at 1.5 nM.
With `COc1ccc(C(C(=O)N(C)CCc2cc(C(F)(F)F)cc(C(F)(F)F)c2)N2CCN(C3CCCCC3)CC2)cc1OC` (centres unmarked) [Example 70], the melting point is 123 to 133 °C (dec.). In series [1], this compound came in with an inhibitory constant (Ki) of 2.8 nM.
On the same counts, the results for `CN(CCc1cc(C(F)(F)F)cc(C(F)(F)F)c1)C(=O)C(c1ccc2c(c1)OCO2)N1CCN(C2CCCCC2)CC1` (centres unmarked) [Example 71] are 87 to 97 °C and 2.1 nM.
As to `CN(CCc1cc(C(F)(F)F)cc(C(F)(F)F)c1)C(=O)C(c1ccccc1)N1CCC(C#N)(c2ccccc2)CC1.Cl` (centres unmarked) [Example 75], the melting point was in the range of 91 to 98 °C. Also, the Ki in series [1] amounted to 180 nM.
